Results from patent US6994956B2, “Method for assaying enzyme activity” (Bayer Pharmaceuticals Corporation, priority 2003, dated 2006).

Key:
[1] = target: farnesyl-diphosphate synthase (FPPS) (Homo sapiens, UniProt P14324); details: FPPS (25 ng), incubated for 2 hours, conditions of FIG. 4
Description: Time course and protein dependence of farnesyl-diphosphate synthase (FPPS)-produced product partitioning into the organic phase. FPPS was incubated at varying concentrations and times at room temperature with 5 μM geranyl pyrophosphate (GPP) and 5 μM IPP (0.0125 μCi; [1-^14C]isopentenyl pyrophosphate) in a buffer containing 25 mM HEPES (pH 7.5), 1 mM DTT, and 1 mM MgCl2 in a total volume of 40 μL. The reaction was terminated by the addition of 10 μL of 5% phosphoric acid, followed by 50 μL Microscint™-CAT. The mix was allowed to incubate two hours prior to data acquisition. […]
A typical 384-well density reaction is partitioned with the following proportion of reagents: 40 μL enzyme assay inhibitor test mix containing FPP synthetase, substrates, test compounds, and buffer components is incubated at room temperature to generate farnesyl diphosphate. […] Enzyme activity is proportional to the radioactivity in the organic phase as determined by liquid scintillation counting (LSC). This radioactivity corresponds to products of acid treatment of the enzyme reaction, farnesol and nerolidol, as determined by LSC of authentic [1,2-^14C]trans, trans farnesol. […] The theoretical signal to background of the assay is established by comparing CPMs in the PPSF using equimolar amounts and equal amounts of radioactivity of radiolabeled substrate and product. […]

[2] = target: fatty acid synthase (FAS) (Homo sapiens, UniProt P49327); test: Phase partition assay of fatty acid synthase activity; type: biochemical; details: FAS (35 ng), incubated for 90 minutes, conditions of FIG. 1
Chain of fatty acid synthase (FAS) (P49327 whole entry, species assumed): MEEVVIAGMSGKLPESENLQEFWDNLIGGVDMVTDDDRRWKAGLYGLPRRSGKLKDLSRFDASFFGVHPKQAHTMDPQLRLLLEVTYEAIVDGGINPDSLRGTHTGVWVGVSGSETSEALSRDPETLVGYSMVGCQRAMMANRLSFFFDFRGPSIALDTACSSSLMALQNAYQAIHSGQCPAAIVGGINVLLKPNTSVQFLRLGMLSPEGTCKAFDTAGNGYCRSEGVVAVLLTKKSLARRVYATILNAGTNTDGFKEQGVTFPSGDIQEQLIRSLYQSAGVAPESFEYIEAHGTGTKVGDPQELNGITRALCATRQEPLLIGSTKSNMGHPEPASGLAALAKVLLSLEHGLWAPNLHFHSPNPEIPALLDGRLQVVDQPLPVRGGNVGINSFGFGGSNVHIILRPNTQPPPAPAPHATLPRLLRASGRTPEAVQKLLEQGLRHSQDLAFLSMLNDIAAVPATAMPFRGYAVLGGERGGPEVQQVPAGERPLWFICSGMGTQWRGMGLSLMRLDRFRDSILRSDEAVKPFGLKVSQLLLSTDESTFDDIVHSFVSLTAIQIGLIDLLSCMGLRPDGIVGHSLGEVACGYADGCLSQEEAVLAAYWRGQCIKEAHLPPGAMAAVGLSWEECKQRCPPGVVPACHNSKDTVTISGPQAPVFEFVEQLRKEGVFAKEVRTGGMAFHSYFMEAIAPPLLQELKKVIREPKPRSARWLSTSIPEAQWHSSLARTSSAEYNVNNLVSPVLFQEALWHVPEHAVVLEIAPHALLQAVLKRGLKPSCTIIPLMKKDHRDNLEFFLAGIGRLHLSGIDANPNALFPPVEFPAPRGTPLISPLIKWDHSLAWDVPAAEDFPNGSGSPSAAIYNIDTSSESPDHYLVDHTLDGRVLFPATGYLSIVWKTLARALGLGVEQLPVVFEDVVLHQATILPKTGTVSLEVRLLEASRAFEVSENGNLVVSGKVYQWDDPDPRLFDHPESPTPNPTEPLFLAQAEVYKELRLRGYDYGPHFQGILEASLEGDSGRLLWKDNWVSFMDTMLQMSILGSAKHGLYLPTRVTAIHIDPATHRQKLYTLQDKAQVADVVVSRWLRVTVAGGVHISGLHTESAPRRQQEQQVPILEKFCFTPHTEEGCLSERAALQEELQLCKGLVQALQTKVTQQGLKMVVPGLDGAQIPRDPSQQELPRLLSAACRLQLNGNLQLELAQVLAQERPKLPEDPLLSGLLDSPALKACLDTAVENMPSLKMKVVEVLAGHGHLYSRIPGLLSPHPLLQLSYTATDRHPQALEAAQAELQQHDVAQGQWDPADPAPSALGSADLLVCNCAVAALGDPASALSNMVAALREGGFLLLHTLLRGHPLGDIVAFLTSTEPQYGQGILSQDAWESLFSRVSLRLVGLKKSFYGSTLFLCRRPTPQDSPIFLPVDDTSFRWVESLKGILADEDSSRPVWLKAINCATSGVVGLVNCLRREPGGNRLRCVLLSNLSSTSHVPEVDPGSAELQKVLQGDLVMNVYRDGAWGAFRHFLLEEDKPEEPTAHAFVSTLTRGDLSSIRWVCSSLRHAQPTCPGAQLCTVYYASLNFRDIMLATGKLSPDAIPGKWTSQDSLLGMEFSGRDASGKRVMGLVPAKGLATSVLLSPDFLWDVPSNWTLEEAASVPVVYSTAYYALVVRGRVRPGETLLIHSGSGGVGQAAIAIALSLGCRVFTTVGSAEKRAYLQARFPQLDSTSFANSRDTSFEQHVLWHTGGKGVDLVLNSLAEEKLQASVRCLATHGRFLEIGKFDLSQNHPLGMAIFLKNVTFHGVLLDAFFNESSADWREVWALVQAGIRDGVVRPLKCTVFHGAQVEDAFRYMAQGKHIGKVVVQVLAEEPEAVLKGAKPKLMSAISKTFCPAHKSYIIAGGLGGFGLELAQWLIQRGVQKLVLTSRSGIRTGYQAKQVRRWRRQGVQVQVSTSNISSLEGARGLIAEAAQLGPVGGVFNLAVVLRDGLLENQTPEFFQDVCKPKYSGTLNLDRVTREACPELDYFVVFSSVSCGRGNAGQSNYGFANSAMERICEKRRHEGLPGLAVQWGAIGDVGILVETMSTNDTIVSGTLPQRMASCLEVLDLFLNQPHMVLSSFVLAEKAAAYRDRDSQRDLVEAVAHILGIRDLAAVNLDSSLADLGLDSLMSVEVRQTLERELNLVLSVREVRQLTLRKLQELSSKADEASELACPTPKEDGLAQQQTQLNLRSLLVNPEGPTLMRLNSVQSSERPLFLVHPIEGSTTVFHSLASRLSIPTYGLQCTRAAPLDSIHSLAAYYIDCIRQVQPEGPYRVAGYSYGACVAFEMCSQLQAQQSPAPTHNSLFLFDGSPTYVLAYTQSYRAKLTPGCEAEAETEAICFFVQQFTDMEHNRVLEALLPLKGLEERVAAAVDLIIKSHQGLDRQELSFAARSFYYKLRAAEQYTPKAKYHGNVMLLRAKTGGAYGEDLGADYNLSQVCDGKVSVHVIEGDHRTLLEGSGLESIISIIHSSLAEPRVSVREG
Description: FAS was incubated at varying concentrations and times at room temperature with 400 μM NADPH, 100 μM acetyl-CoA, and 20 μM malonyl-CoA (0.02 μCi [malonyl-2-^14C]-CoA) in buffer containing 50 mM MOPS (pH 6.8), 5 mM DTT, 1 mM EDTA, and 0.03% BSA in a total volume of 100 μL. The reaction was terminated by the addition of 10 μL of 10 N acetic acid, followed by the addition of 150 μL Microscint™-CAT. The mix was allowed to incubate overnight prior to data acquisition.
Inhibition of FAS by cerulenin. FAS (35 ng) was incubated for 90 minutes with cerulenin under conditions described in FIG. 1.
This method of the present invention permits radiometric detection of FAS activity via a gain of signal assay using [2-^14C]malonyl CoA as the radiolabel and partitioning of the radioactive products (^14C-labeled oleic acid and palmitic acid) into the PPSF (Microscint™-E), following acidification and addition of PPSF to the reaction mixture.
A typical 96-well density reaction is partitioned in the following manner: an enzyme assay inhibitor test mix (100 μL) containing enzyme, substrates, test compounds, and buffer components is incubated at room temperature to generate the fatty acid products. […] Enzyme activity is proportional to the radioactivity in the organic phase as determined by liquid scintillation counting. […]

Chain of farnesyl-diphosphate synthase (FPPS) (P14324 whole entry): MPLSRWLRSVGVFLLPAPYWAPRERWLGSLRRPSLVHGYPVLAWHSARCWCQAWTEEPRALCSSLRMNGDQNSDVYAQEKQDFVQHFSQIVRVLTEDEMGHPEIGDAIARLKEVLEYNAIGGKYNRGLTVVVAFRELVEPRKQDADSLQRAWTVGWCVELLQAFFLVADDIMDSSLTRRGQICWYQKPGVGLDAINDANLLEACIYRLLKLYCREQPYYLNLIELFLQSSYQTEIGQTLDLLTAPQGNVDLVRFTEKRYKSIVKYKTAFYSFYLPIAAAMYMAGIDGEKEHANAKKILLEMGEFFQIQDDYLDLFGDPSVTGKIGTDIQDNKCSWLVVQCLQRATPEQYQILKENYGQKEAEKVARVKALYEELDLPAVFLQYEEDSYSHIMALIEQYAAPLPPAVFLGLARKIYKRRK

Row | SMILES | Inhibition of FPPS [1] | Inhibition of FAS [2]
1 | NCCCC(O)(P(=O)(O)O)P(=O)(O)O [alendronate] | Inhibition | 
2 | C/C=C/C/C=C/CCC(=O)[C@H]1O[C@H]1C(N)=O [cerulenin] |  | Inhibition
